Measured values reported in ChEMBL document CHEMBL3046627, “Synthesis and in vitro study of antibacterial, antifungal activities of some novel bisquinolines” (2013).
Values after ≈ are worked out from the molar mass of the structure shown. Active and inactive are the calls of the source. The rule behind the calls is not given here.

Assays:
[1] = system: Bacillus pumilus; experiment: Antibacterial activity against Bacillus pumilus 11778 assessed as growth inhibition at MIC after 24 hr by agar dilution method; type: functional
[2] = system: Pseudomonas aeruginosa; experiment: Antibacterial activity against Pseudomonas aeruginosa 71 assessed as growth inhibition at MIC after 24 hr by agar dilution method; type: functional
[3] = system: Vibrio cholerae; experiment: Antibacterial activity against Vibrio cholerae 759 assessed as growth inhibition at MIC after 24 hr by agar dilution method; type: functional
[4] = system: Klebsiella pneumoniae; experiment: Antibacterial activity against Klebsiella pneumoniae J/I/4 assessed as growth inhibition at MIC after 24 hr by agar dilution method; type: functional
[5] = system: Aspergillus niger; experiment: Antifungal activity against Aspergillus niger assessed as growth inhibition after 96 hr by agar dilution method; type: functional
[6] = system: Candida albicans; experiment: Antifungal activity against Candida albicans assessed as growth inhibition after 96 hr by agar dilution method; type: functional
[7] = system: Candida tropicalis; experiment: Antifungal activity against Candida tropicalis assessed as growth inhibition after 96 hr by agar dilution method; type: functional
[8] = system: Cryptococcus neoformans; experiment: Antifungal activity against Cryptococcus neoformans assessed as growth inhibition after 96 hr by agar dilution method; type: functional
[9] = system: Aspergillus niger; experiment: Antifungal activity against Aspergillus niger assessed as growth inhibition at MIC after 96 hr by agar dilution method; type: functional
[10] = system: Candida albicans; experiment: Antifungal activity against Candida albicans assessed as growth inhibition at MIC after 96 hr by agar dilution method; type: functional
[11] = system: Candida tropicalis; experiment: Antifungal activity against Candida tropicalis assessed as growth inhibition at MIC after 96 hr by agar dilution method; type: functional
[12] = system: Cryptococcus neoformans; experiment: Antifungal activity against Cryptococcus neoformans assessed as growth inhibition at MIC after 96 hr by agar dilution method; type: functional
[13] = system: Staphylococcus aureus; experiment: Antibacterial activity against Staphylococcus aureus 29737 assessed as growth inhibition after 24 hr by agar dilution method; type: functional; conditions: Staphylococcus aureus, 29737, 24 h
[14] = system: Shigella dysenteriae; experiment: Antibacterial activity against Shigella dysenteriae 15 assessed as growth inhibition after 24 hr by agar dilution method; type: functional; conditions: Shigella dysenteriae, 15, 24 h
[15] = system: Micrococcus luteus; experiment: Antibacterial activity against Micrococcus luteus ATCC 9341 assessed as growth inhibition after 24 hr by agar dilution method; type: functional; conditions: ATCC 9341, 24 h
[16] = system: Escherichia coli; experiment: Antibacterial activity against Escherichia coli 319 assessed as growth inhibition after 24 hr by agar dilution method; type: functional; conditions: Escherichia coli, 319, 24 h
[17] = system: Bacillus pumilus; experiment: Antibacterial activity against Bacillus pumilus 11778 assessed as growth inhibition after 24 hr by agar dilution method; type: functional; conditions: Bacillus pumilus, 11778, 24 h
[18] = system: Pseudomonas aeruginosa; experiment: Antibacterial activity against Pseudomonas aeruginosa 71 assessed as growth inhibition after 24 hr by agar dilution method; type: functional; conditions: Pseudomonas aeruginosa, 71, 24 h
[19] = system: Vibrio cholerae; experiment: Antibacterial activity against Vibrio cholerae 759 assessed as growth inhibition after 24 hr by agar dilution method; type: functional; conditions: Vibrio cholerae, 759, 24 h
[20] = system: Klebsiella pneumoniae; experiment: Antibacterial activity against Klebsiella pneumoniae J/I/4 assessed as growth inhibition after 24 hr by agar dilution method; type: functional; conditions: J/I/4, 24 h
[21] = system: Staphylococcus aureus; experiment: Antibacterial activity against Staphylococcus aureus 29737 assessed as growth inhibition at MIC after 24 hr by agar dilution method; type: functional
[22] = system: Shigella dysenteriae; experiment: Antibacterial activity against Shigella dysenteriae 15 assessed as growth inhibition at MIC after 24 hr by agar dilution method; type: functional
[23] = system: Micrococcus luteus; experiment: Antibacterial activity against Micrococcus luteus ATCC 9341 assessed as growth inhibition at MIC after 24 hr by agar dilution method; type: functional
[24] = system: Escherichia coli; experiment: Antibacterial activity against Escherichia coli 319 assessed as growth inhibition at MIC after 24 hr by agar dilution method; type: functional
[25] = system: Klebsiella pneumoniae; experiment: Antibacterial activity against Klebsiella pneumoniae J/I/4 assessed as growth inhibition at MIC; type: functional, organism-based; conditions: TDE = time-dependent effect
[26] = system: Klebsiella pneumoniae; experiment: Antibacterial activity against Klebsiella pneumoniae J/I/4 assessed as cell wall deformation at MIC after 24 hr by scanning electron microscopic analysis relative to untreated control; type: functional, organism-based
[27] = system: Klebsiella pneumoniae; experiment: Antibacterial activity against Klebsiella pneumoniae J/I/4 assessed as cell agglomeration at MIC after 24 hr by scanning electron microscopic analysis relative to untreated control; type: functional, organism-based
[28] = system: Escherichia coli; experiment: Antibacterial activity against Escherichia coli 319 assessed as growth inhibition at MIC; type: functional, organism-based; conditions: TDE = time-dependent effect

Structure (SMILES) | diameter of the inhibition zone (DIZ) [1] | diameter of the inhibition zone (DIZ) [2] | diameter of the inhibition zone (DIZ) [3] | diameter of the inhibition zone (DIZ) [4] | MIC [5] | MIC [6] | MIC [7] | MIC [8] | MIC [13] [µg/mL] | MIC [14] [µg/mL] | MIC [15] [µg/mL] | MIC [16] [µg/mL] | MIC [17] [µg/mL] | MIC [18] [µg/mL] | MIC [19] [µg/mL] | MIC [20] [µg/mL] | diameter of the inhibition zone (DIZ) [21] | diameter of the inhibition zone (DIZ) [22] | diameter of the inhibition zone (DIZ) [23] [mm] | diameter of the inhibition zone (DIZ) [24] | also measured
Clc1ccc(OCc2nc3ccccc3nc2COc2ccc(Cl)c3cccnc23)c2ncccc12 | 8 mm | inactive | inactive | 6 mm | 1000 µg/mL (≈ 1950 µM) | 1000 µg/mL (≈ 1950 µM) | 1500 µg/mL (≈ 2920 µM) | inactive | > 500 | > 500 | 32 (≈ 62.3 µM) | 32 (≈ 62.3 µM) | 32 (≈ 62.3 µM) | > 500 | > 500 | > 500 | inactive | 6 mm | 7 | 8 mm | diameter of the inhibition zone (DIZ) [9]: 7.5 mm; diameter of the inhibition zone (DIZ) [10]: 7.8 mm; diameter of the inhibition zone (DIZ) [11]: 7.5 mm; diameter of the inhibition zone (DIZ) [12]: inactive
Clc1ccc(OCc2cc3ccccc3cc2COc2ccc(Cl)c3cccnc23)c2ncccc12 | 8 mm | inactive | 8 mm | 7 mm | inactive | inactive | inactive | inactive | > 500 | > 500 | 32 (≈ 62.6 µM) | 32 (≈ 62.6 µM) | 32 (≈ 62.6 µM) | > 500 | 128 (≈ 250 µM) | 32 (≈ 62.6 µM) | 6 mm | inactive | 8 | 7.2 mm | growth inhibition (GI) [25]: tde; Activity [26]: Active; Activity [27]: Active
Cc1ccc2cccc(OCc3ccccc3COc3cccc4ccc(C)nc34)c2n1 | 7 mm | inactive | 8 mm | 8 mm | 1000 µg/mL (≈ 2380 µM) | inactive | 2000 µg/mL (≈ 4760 µM) | inactive | 128 (≈ 304 µM) | 32 (≈ 76.1 µM) | 128 (≈ 304 µM) | > 1000 | > 500 | > 500 | 64 (≈ 152 µM) | 32 (≈ 76.1 µM) | 6 mm | 8 mm | 7 | inactive | diameter of the inhibition zone (DIZ) [9]: 9 mm; diameter of the inhibition zone (DIZ) [10]: inactive; diameter of the inhibition zone (DIZ) [11]: 7 mm; diameter of the inhibition zone (DIZ) [12]: inactive
Clc1ccc(OCc2ccccc2COc2ccc(Cl)c3cccnc23)c2ncccc12 | 6 mm | 7.5 mm | 7 mm | inactive | 1000 µg/mL (≈ 2170 µM) | 1500 µg/mL (≈ 3250 µM) | 1000 µg/mL (≈ 2170 µM) | inactive | 128 (≈ 277 µM) | 64 (≈ 139 µM) | 32 (≈ 69.4 µM) | 32 (≈ 69.4 µM) | 32 (≈ 69.4 µM) | 64 (≈ 139 µM) | 32 (≈ 69.4 µM) | > 500 | 7 mm | 6 mm | 6.5 | 6.5 mm | growth inhibition (GI) [28]: tde; diameter of the inhibition zone (DIZ) [9]: 7.5 mm; diameter of the inhibition zone (DIZ) [10]: 7 mm; diameter of the inhibition zone (DIZ) [11]: 9 mm; diameter of the inhibition zone (DIZ) [12]: inactive
c1ccc(COc2cccc3cccnc23)c(COc2cccc3cccnc23)c1 | inactive | 6 mm | inactive | 8 mm | inactive | inactive | inactive | inactive | 32 (≈ 81.5 µM) | 32 (≈ 81.5 µM) | > 500 | > 500 | 500 (≈ 1270 µM) | > 500 | > 500 | 32 (≈ 81.5 µM) | 7.2 mm | 6.5 mm | 7 | inactive | diameter of the inhibition zone (DIZ) [9]: inactive; diameter of the inhibition zone (DIZ) [10]: inactive; diameter of the inhibition zone (DIZ) [11]: inactive; diameter of the inhibition zone (DIZ) [12]: inactive
